# Source: PMC4666608, “Metabolic Profiling of Chicken Embryos Exposed to Perfluorooctanoic Acid (PFOA) and Agonists to Peroxisome Proliferator-Activated Receptors” (PLoS ONE, 2015)
# Marks after values point to notes of the source that are not given here.
# System: chicken embryos
# Assay: Metabolic profiling of allantoic fluid (GC-MS, LC-MS, OPLS-DA)
# Assay type: in vivo, Gallus gallus domesticus
# Conditions: 150 μg/egg
# Procedure: Controls were injected with 20 μL vehicle only (DMSO).
# Plasma was collected and stored at -70°C.
# Metabolites in allantoic fluid and blood plasma were analyzed using gas chromatography-mass spectrometry (GC-MS) and liquid chromatography-mass spectrometry (LC-MS) as described in S1 Methods. Prior to GC-MS and LC-MS analysis, allantoic fluid (100 μL) and blood plasma (50 μL) were extracted. To each sample, 900 μL (allantoic fluid) or 450 μL (blood plasma) of extraction buffer (90/10 v/v methanol:water) including all internal standards were added. Standards for GC-MS were proline, succinic acid, glutamic acid, salicylic acid, alpha-ketoglutarate, putrescine, myristic acid, hexadecanoic acid, cholesterol, and sucrose. Standards for LC-MS were Val-Tyr-Val, Leu-enkephalin, sulfadimethoxine and reserpine. Samples were homogenized by shaking in a bead mill at a frequency of 30 Hz for 3 minutes and proteins were precipitated at +4°C on ice. The samples were centrifuged at +4°C, 14000 rpm, for 10 min. Then, 200 μL supernatant was transferred to a GC microvial and 200 μL was transferred to an LC microvial, and solvents were evaporated. Samples from the four replicate experiments were analyzed using in chronological order and within each replicate experiment the run order of the individual samples was randomized.
# Multivariate statistical analyses of metabolite profiles were performed using the software package SIMCA-P version 13.0 (Umetrics, Umeå, Sweden). Data was centered and scaled to variance 1 (UV scaling) prior to modelling. To reduce unintended systematic variation caused by sample processing and instrument drift, GC-MS and LC-MS metabolite amounts (expressed as the area under the chromatographic peak) were normalized by Orthogonal Partial Least Squares analysis (O2PLS) prior to multivariate data analysis. O2PLS finds common (predictive) and unique (orthogonal) variation in two data matrices. If applied to find the common variation between the data matrix containing the measured metabolite concentrations and a matrix containing only the internal standards, the only common (predictive) variation expected is due to the unintended systematic variation. By deleting the contribution of the predictive latent variables, that variation can be removed from the data. Models obtained after this normalization contain in general less latent variables, and this simplification helps when deciding on the number of latent variables to be used. Following normalization, GC-MS and LC-MS data were analyzed together. Initially, a global Principal Component Analysis (PCA) was performed to get an overview of groups and trends and to identify outliers. Projections to latent structures by means of Orthogonal Partial Least Squares Discriminant Analysis (OPLS-DA) was used to model the relationship between the X-matrix (metabolite concentrations) and the Y matrix (class, i.e. exposure group or sex), and to find x-variables that were related to class belonging. OPLS-DA is a supervised prediction and regression method that rotates the projection plane to find the maximum covariance between the data and the class assignment. All groups were first analyzed together in a 5-class OPLS-DA and then each exposure group was analyzed against the control group in a 2-class OPLS-DA. Sex differences were analyzed both using the whole data set and in each group separately using 2-class OPLS-DA, with females and males as the two classes. Only variables with 80% or more nonzero values were included in the statistical models. […] The validity of each model was also checked using CV-ANOVA (ANOVA of the cross-validated residuals). A significance level of p < 0.05 was used. For each model, R ^2 X, R ^2 Y and Q ^2 values were calculated, where R ^2 X is a measure of the fraction of x variation modeled in the extracted latent variables, R ^2 Y is a measure of the fraction of y variation modeled and Q ^2 is an estimate of the predictive ability of the model and is calculated by cross-validation. […]
# [1] = GC, tentative 2-Oxovaleric acid
smiles,measurement,setting,value
"CC(C)(Sc1ccc(CCN(CCCCC2CCCCC2)C(=O)NC2CCCCC2)cc1)C(=O)O [GW7647, reference compound]","Mean concentration relative to control, feature Win004_C08",GC,1.3***
same,"Mean concentration relative to control, feature Win005_C07",GC,1.4***
same,"Mean concentration relative to control, feature Win008_C06",GC,2.7***
same,"Mean concentration relative to control, feature Win022_C01",GC,2.3***
same,"Mean concentration relative to control, feature Win023_C06",GC,2.8***
same,"Mean concentration relative to control, feature win006_C01",GC,2.4***
same,"Mean concentration relative to control, feature Win008_C07","GC, tentative 1-Aminocyclopropanecarboxylic acid",1.4***
same,"Mean concentration relative to control, feature Win023_C03","GC, tentative 2-Oxoglutaric acid",2.5***
same,"Mean concentration relative to control, feature Win007_C09",[1],1.5***
same,"Mean concentration relative to control, feature Win008_C05",[1],1.6***
same,"Mean concentration relative to control, feature Win018_C04","GC, tentative 3-Amino-2-piperidone",1.4***
same,"Mean concentration relative to control, feature Win007_C03","GC, tentative 3-Hydroxybutanoic acid",1.3***
same,"Mean concentration relative to control, feature Win042_C02","GC, tentative Cystathionine",2.1***
same,"Mean concentration relative to control, feature Win009_C03","GC, tentative Ketoleucine",1.5***
same,"Mean concentration relative to control, feature Win008_C04","GC, tentative Malonic acid",1.3***
same,"Mean concentration relative to control, feature Win005_C03","GC, tentative Oxalic acid",0.8*
same,"Mean concentration relative to control, feature Win013_C05","GC, tentative Succinic acid",1.3***
same,"Mean concentration relative to control, feature 134.0239@1.1350567",LC,1.6*
same,"Mean concentration relative to control, feature 145.0538@3.072527",LC,1.8***
same,"Mean concentration relative to control, feature 147.0328@3.0722888",LC,1.7***
same,"Mean concentration relative to control, feature 160.0323@1.1950632",LC,1.1*
same,"Mean concentration relative to control, feature 173.0488@3.0734746",LC,1.8***
same,"Mean concentration relative to control, feature 176.0952@1.3890611",LC,0.6
same,"Mean concentration relative to control, feature 178.0428@1.7582192",LC,1.1
same,"Mean concentration relative to control, feature 180.0048@4.421465",LC,1.0
same,"Mean concentration relative to control, feature 189.1159@1.9209185",LC,0.8*
same,"Mean concentration relative to control, feature 197.0639@2.1181405",LC,1.2***
same,"Mean concentration relative to control, feature 201.012@3.046474",LC,1.5***
same,"Mean concentration relative to control, feature 202.0429@2.9548414",LC,1.1
same,"Mean concentration relative to control, feature 205.0533@4.421879",LC,1.0
same,"Mean concentration relative to control, feature 214.016@2.1190732",LC,1.3***
same,"Mean concentration relative to control, feature 226.0107@4.421457",LC,1.0
same,"Mean concentration relative to control, feature 236.0816@3.0720985",LC,1.7***
same,"Mean concentration relative to control, feature 241.0551@2.3510706",LC,1.2*
same,"Mean concentration relative to control, feature 243.1118@2.1537287",LC,1.0
same,"Mean concentration relative to control, feature 244.9972@4.421603",LC,1.0
same,"Mean concentration relative to control, feature 245.1563@2.2907295",LC,0.8*
same,"Mean concentration relative to control, feature 250.0981@3.072492",LC,1.8***
same,"Mean concentration relative to control, feature 262.0978@2.7961144",LC,2.6***
same,"Mean concentration relative to control, feature 263.0855@2.2847009",LC,2.1***
same,"Mean concentration relative to control, feature 270.0441@1.1407775",LC,0.9
same,"Mean concentration relative to control, feature 278.0928@3.0723689",LC,1.8***
same,"Mean concentration relative to control, feature 279.1248@2.796395",LC,3.2***
same,"Mean concentration relative to control, feature 280.1425@2.730277",LC,1.0
same,"Mean concentration relative to control, feature 288.1166@2.9551322",LC,1.2
same,"Mean concentration relative to control, feature 289.1012@3.249983",LC,1.8***
same,"Mean concentration relative to control, feature 289.173@7.5030584",LC,0.9
same,"Mean concentration relative to control, feature 294.1242@2.3692534",LC,1.0
same,"Mean concentration relative to control, feature 302.0508@3.0722616",LC,1.6***
same,"Mean concentration relative to control, feature 305.1682@5.353517",LC,1.7***
same,"Mean concentration relative to control, feature 305.1684@5.2955093",LC,1.6***
same,"Mean concentration relative to control, feature 308.073@4.4211636",LC,1.0
same,"Mean concentration relative to control, feature 310.1181@1.5090439",LC,1.1
same,"Mean concentration relative to control, feature 316.0389@3.0725708",LC,1.5***
same,"Mean concentration relative to control, feature 320.0626@3.0729218",LC,1.5***
same,"Mean concentration relative to control, feature 325.1114@2.1190624",LC,1.5***
same,"Mean concentration relative to control, feature 325.1115@2.3554378",LC,1.3*
same,"Mean concentration relative to control, feature 333.1335@2.8639288",LC,0.9
same,"Mean concentration relative to control, feature 333.2005@6.5291867",LC,1.3*
same,"Mean concentration relative to control, feature 335.1866@4.508565",LC,0.4***
same,"Mean concentration relative to control, feature 337.1651@1.8737898",LC,1.4***
same,"Mean concentration relative to control, feature 344.1424@2.348947",LC,1.3
same,"Mean concentration relative to control, feature 348.0553@3.0730357",LC,1.5***
same,"Mean concentration relative to control, feature 349.1651@2.4087605",LC,0.6***
same,"Mean concentration relative to control, feature 357.1997@6.9691257",LC,1.1
same,"Mean concentration relative to control, feature 371.1513@3.0009465",LC,1.2
same,"Mean concentration relative to control, feature 375.1819@3.672254",LC,0.6***
same,"Mean concentration relative to control, feature 394.167@3.9552917",LC,0.5***
same,"Mean concentration relative to control, feature 414.1482@2.118972",LC,1.5***
same,"Mean concentration relative to control, feature 466.0837@2.1187525",LC,1.5***
same,"Mean concentration relative to control, feature 488.0753@4.419585",LC,1.0
same,"Mean concentration relative to control, feature 498.1003@2.1184251",LC,1.4***
same,"Mean concentration relative to control, feature 507.1682@2.1238236",LC,1.4***
same,"Mean concentration relative to control, feature 580.1426@3.0726147",LC,2.3***
same,"Mean concentration relative to control, feature 582.1578@2.1747615",LC,1.7***
same,"Mean concentration relative to control, feature 588.1751@2.1182237",LC,1.5***
same,"Mean concentration relative to control, feature 594.1337@3.0724604",LC,2.3***
same,"Mean concentration relative to control, feature 604.1486@2.1174603",LC,1.5***
same,"Mean concentration relative to control, feature 623.183@2.1249466",LC,1.8***
same,"Mean concentration relative to control, feature 668.2625@6.4379454",LC,1.03*
same,"Mean concentration relative to control, feature 155.0353@0.6447272","LC, suggested C3H10NO4P",0.6
same,"Mean concentration relative to control, feature 345.0497@1.1234403","LC, suggested C10H12N5O7P",1.3*
same,"Mean concentration relative to control, feature 337.0259@4.4213357","LC, suggested C13H11N3O4S2",1.0
same,"Mean concentration relative to control, feature 344.1427@2.1164653","LC, suggested C13H20N4O7",1.5***
same,"Mean concentration relative to control, feature 331.184@6.373359","LC, suggested C13H25N5O5",1.3*
same,"Mean concentration relative to control, feature 361.2026@5.6644735","LC, suggested C16H31N3O4S",0.5***
